Square brackets hold non-standard residues; d marks the D form. Peptide text beside a SMILES is read from it. NMeR = CN[C@@H](CCCNC(=N)N)C(=O)O; NMeF = CN[C@@H](Cc1ccccc1)C(=O)O; NMeI = CC[C@H](C)[C@H](NC)C(=O)O; NMeT = CN[C@H](C(=O)O)[C@@H](C)O; NMeM = CN[C@@H](CCSC)C(=O)O; NMeV = CN[C@H](C(=O)O)C(C)C
Columns and labels:
[1] = target: Human immunodeficiency virus type 1 integrase (Human immunodeficiency virus 1) (UniProt Q7ZJM1); assay: Binding affinity to HIV-1 integrase measured after overnight incubation by chemiluminescence analysis relative to IN 174-188; design: concentration or dose not given beside the values
Human immunodeficiency virus type 1 integrase (Human immunodeficiency virus 1), sequence (Q7ZJM1 as listed by the source): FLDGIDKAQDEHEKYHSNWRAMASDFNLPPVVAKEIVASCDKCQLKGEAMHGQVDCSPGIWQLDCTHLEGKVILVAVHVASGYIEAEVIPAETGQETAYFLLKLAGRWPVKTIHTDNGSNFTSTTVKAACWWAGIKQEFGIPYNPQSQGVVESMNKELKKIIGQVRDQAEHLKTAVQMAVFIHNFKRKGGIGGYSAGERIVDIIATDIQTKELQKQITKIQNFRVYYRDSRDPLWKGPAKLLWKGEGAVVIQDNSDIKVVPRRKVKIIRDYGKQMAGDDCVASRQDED

[2] = tested on: Human immunodeficiency virus 1; assay: Binding affinity to HLT-tagged HIV-1 Rev measured after overnight incubation by chemiluminescence analysis relative to IN 174-188; design: concentration or dose not given beside the values

SMILES	Activity [1]	Activity [2]
CC[C@H](C)[C@H](NC(=O)[C@H](Cc1ccccc1)NC(=O)[C@@H](NC(=O)[C@H](C)NC(=O)[C@H](CCSC)NC(=O)[C@H](CCC(N)=O)NC(=O)[C@@H](N)C(C)C)C(C)C)C(=O)N[C@@H](Cc1cnc[nH]1)C(=O)N[C@@H](CC(N)=O)C(=O)N[C@@H](Cc1ccccc1)C(=O)N[C@@H](CCCCN)C(=O)N[C@@H](CCCNC(=N)N)C(=O)N[C@@H](CCCCN)C(=O)O (H-VQMAVFIHNFKRK-OH)	133%	104%
CC[C@H](C)[C@H](NC(=O)[C@H](Cc1ccccc1)NC(=O)[C@@H](NC(=O)[C@H](C)NC(=O)[C@H](CCSC)NC(=O)[C@H](CCC(N)=O)NC(=O)[C@@H](NC(=O)[C@H](C)NC(=O)[C@H](N)[C@@H](C)O)C(C)C)C(C)C)C(=O)N[C@@H](Cc1cnc[nH]1)C(=O)N[C@@H](CC(N)=O)C(=O)N[C@@H](Cc1ccccc1)C(=O)N[C@@H](CCCCN)C(=O)N[C@@H](CCCNC(=N)N)C(=O)N[C@@H](CCCCN)C(=O)O	73%	141%
CC[C@H](C)[C@H](NC(=O)[C@H](Cc1ccccc1)NC(=O)[C@@H](NC(=O)[C@H](C)NC(=O)[C@H](CCSC)NC(=O)[C@H](CCC(N)=O)NC(=O)[C@@H](NC(=O)[C@H](C)NC(=O)[C@H](C)N)C(C)C)C(C)C)C(=O)N[C@@H](Cc1cnc[nH]1)C(=O)N[C@@H](CC(N)=O)C(=O)N[C@@H](Cc1ccccc1)C(=O)N[C@@H](CCCCN)C(=O)N[C@@H](CCCNC(=N)N)C(=O)N[C@@H](CCCCN)C(=O)O (H-AAVQMAVFIHNFKRK-OH)	83%	80%
CC[C@H](C)[C@@H](NC(=O)[C@H](Cc1ccccc1)NC(=O)[C@@H](NC(=O)[C@H](C)NC(=O)[C@H](CCSC)NC(=O)[C@H](CCC(N)=O)NC(=O)[C@@H](NC(=O)[C@H](C)NC(=O)[C@@H](N)[C@@H](C)O)C(C)C)C(C)C)C(=O)N[C@@H](Cc1cnc[nH]1)C(=O)N[C@@H](CC(N)=O)C(=O)N[C@@H](Cc1ccccc1)C(=O)N[C@@H](CCCCN)C(=O)N[C@@H](CCCNC(=N)N)C(=O)N[C@@H](CCCCN)C(=O)O	99%	108%
CC[C@H](C)[C@H](NC(=O)[C@H](Cc1ccccc1)NC(=O)[C@@H](NC(=O)[C@H](C)NC(=O)[C@H](CCSC)NC(=O)[C@H](CCC(N)=O)NC(=O)[C@H](C(C)C)N(C)C(=O)[C@H](C)NC(=O)[C@@H](N)[C@@H](C)O)C(C)C)C(=O)N[C@@H](Cc1cnc[nH]1)C(=O)N[C@@H](CC(N)=O)C(=O)N[C@@H](Cc1ccccc1)C(=O)N[C@@H](CCCCN)C(=O)N[C@@H](CCCNC(=N)N)C(=O)N[C@@H](CCCCN)C(=O)O (H-TA[NMeV]QMAVFIHNFKRK-OH)	118%	110%
CC[C@H](C)[C@H](NC(=O)[C@H](Cc1ccccc1)NC(=O)[C@@H](NC(=O)[C@H](C)NC(=O)[C@H](CCSC)NC(=O)[C@H](CCC(N)=O)NC(=O)[C@@H](NC(=O)[C@H](C)NC(=O)[C@@H](N)[C@@H](C)O)C(C)C)C(C)C)C(=O)N[C@@H](Cc1cnc[nH]1)C(=O)N[C@@H](CC(N)=O)C(=O)N[C@@H](C)C(=O)N[C@@H](CCCCN)C(=O)N[C@@H](CCCNC(=N)N)C(=O)N[C@@H](CCCCN)C(=O)O (H-TAVQMAVFIHNAKRK-OH)	134%	193%
CC[C@H](C)[C@H](NC(=O)[C@H](Cc1ccccc1)NC(=O)[C@@H](NC(=O)[C@H](C)NC(=O)[C@H](CCSC)NC(=O)[C@H](CCC(N)=O)NC(=O)[C@@H](NC(=O)[C@H](C)NC(=O)[C@@H](N)[C@@H](C)O)C(C)C)C(C)C)C(=O)N[C@@H](Cc1cnc[nH]1)C(=O)N[C@@H](CC(N)=O)C(=O)N(C)[C@@H](Cc1ccccc1)C(=O)N[C@@H](CCCCN)C(=O)N[C@@H](CCCNC(=N)N)C(=O)N[C@@H](CCCCN)C(=O)O (H-TAVQMAVFIHN[NMeF]KRK-OH)	122%	50%
CC[C@H](C)[C@H](NC(=O)[C@H](Cc1ccccc1)NC(=O)[C@@H](NC(=O)[C@H](C)NC(=O)[C@H](CCSC)NC(=O)[C@H](CCC(N)=O)NC(=O)[C@@H](NC(=O)[C@H](C)NC(=O)[C@@H](N)[C@@H](C)O)C(C)C)C(C)C)C(=O)N[C@@H](Cc1cnc[nH]1)C(=O)N[C@@H](CC(N)=O)C(=O)N[C@@H](Cc1ccccc1)C(=O)N[C@@H](CCCCN)C(=O)N(C)[C@@H](CCCNC(=N)N)C(=O)N[C@@H](CCCCN)C(=O)O (H-TAVQMAVFIHNFK[NMeR]K-OH)	123%	75%
CC[C@H](C)[C@H](NC(=O)[C@H](Cc1ccccc1)NC(=O)[C@@H](NC(=O)[C@H](C)NC(=O)[C@H](CCSC)N(C)C(=O)[C@H](CCC(N)=O)NC(=O)[C@@H](NC(=O)[C@H](C)NC(=O)[C@@H](N)[C@@H](C)O)C(C)C)C(C)C)C(=O)N[C@@H](Cc1cnc[nH]1)C(=O)N[C@@H](CC(N)=O)C(=O)N[C@@H](Cc1ccccc1)C(=O)N[C@@H](CCCCN)C(=O)N[C@@H](CCCNC(=N)N)C(=O)N[C@@H](CCCCN)C(=O)O (H-TAVQ[NMeM]AVFIHNFKRK-OH)	103%	134%
CC[C@H](C)[C@H](NC(=O)[C@H](Cc1ccccc1)NC(=O)[C@@H](NC(=O)[C@H](C)NC(=O)[C@@H](N)CCSC)C(C)C)C(=O)N[C@@H](Cc1cnc[nH]1)C(=O)N[C@@H](CC(N)=O)C(=O)N[C@@H](Cc1ccccc1)C(=O)N[C@@H](CCCCN)C(=O)N[C@@H](CCCNC(=N)N)C(=O)N[C@@H](CCCCN)C(=O)O (H-MAVFIHNFKRK-OH)	106%	88%
CC[C@H](C)[C@H](NC(=O)[C@H](Cc1ccccc1)NC(=O)[C@@H](NC(=O)[C@@H](C)NC(=O)[C@H](CCSC)NC(=O)[C@H](CCC(N)=O)NC(=O)[C@@H](NC(=O)[C@H](C)NC(=O)[C@@H](N)[C@@H](C)O)C(C)C)C(C)C)C(=O)N[C@@H](Cc1cnc[nH]1)C(=O)N[C@@H](CC(N)=O)C(=O)N[C@@H](Cc1ccccc1)C(=O)N[C@@H](CCCCN)C(=O)N[C@@H](CCCNC(=N)N)C(=O)N[C@@H](CCCCN)C(=O)O	142%	194%
CC[C@H](C)[C@H](NC(=O)[C@H](Cc1ccccc1)NC(=O)[C@H](C)NC(=O)[C@H](C)NC(=O)[C@H](CCSC)NC(=O)[C@H](CCC(N)=O)NC(=O)[C@@H](NC(=O)[C@H](C)NC(=O)[C@@H](N)[C@@H](C)O)C(C)C)C(=O)N[C@@H](Cc1cnc[nH]1)C(=O)N[C@@H](CC(N)=O)C(=O)N[C@@H](Cc1ccccc1)C(=O)N[C@@H](CCCCN)C(=O)N[C@@H](CCCNC(=N)N)C(=O)N[C@@H](CCCCN)C(=O)O (H-TAVQMAAFIHNFKRK-OH)	123%	222%
CC[C@H](C)[C@H](NC(=O)[C@H](Cc1ccccc1)NC(=O)[C@@H](NC(=O)[C@H](C)N)C(C)C)C(=O)N[C@@H](Cc1cnc[nH]1)C(=O)N[C@@H](CC(N)=O)C(=O)N[C@@H](Cc1ccccc1)C(=O)N[C@@H](CCCCN)C(=O)N[C@@H](CCCNC(=N)N)C(=O)N[C@@H](CCCCN)C(=O)O (H-AVFIHNFKRK-OH)	120%	111%
CC[C@H](C)[C@H](NC(=O)[C@@H](N)Cc1ccccc1)C(=O)N[C@@H](Cc1cnc[nH]1)C(=O)N[C@@H](CC(N)=O)C(=O)N[C@@H](Cc1ccccc1)C(=O)N[C@@H](CCCCN)C(=O)N[C@@H](CCCNC(=N)N)C(=O)N[C@@H](CCCCN)C(=O)O (H-FIHNFKRK-OH)	133%	69%
CC[C@H](C)[C@H](NC(=O)[C@H](Cc1ccccc1)NC(=O)[C@@H](NC(=O)[C@H](C)NC(=O)[C@H](CCSC)NC(=O)[C@H](CCC(N)=O)NC(=O)[C@@H](NC(=O)[C@H](C)NC(=O)[C@@H](NC)[C@@H](C)O)C(C)C)C(C)C)C(=O)N[C@@H](Cc1cnc[nH]1)C(=O)N[C@@H](CC(N)=O)C(=O)N[C@@H](Cc1ccccc1)C(=O)N[C@@H](CCCCN)C(=O)N[C@@H](CCCNC(=N)N)C(=O)N[C@@H](CCCCN)C(=O)O (H-[NMeT]AVQMAVFIHNFKRK-OH)	84%	93%
CC[C@H](C)[C@H](NC(=O)[C@H](Cc1ccccc1)NC(=O)[C@@H](NC(=O)[C@H](C)NC(=O)[C@H](CCSC)NC(=O)[C@H](CCC(N)=O)NC(=O)[C@@H](NC(=O)[C@H](C)NC(=O)[C@@H](N)[C@@H](C)O)C(C)C)C(C)C)C(=O)N[C@@H](Cc1cnc[nH]1)C(=O)N[C@@H](CC(N)=O)C(=O)N[C@@H](Cc1ccccc1)C(=O)N[C@@H](C)C(=O)N[C@@H](CCCNC(=N)N)C(=O)N[C@@H](CCCCN)C(=O)O (H-TAVQMAVFIHNFARK-OH)	91%	176%
CC[C@H](C)[C@@H](C(=O)N[C@@H](Cc1cnc[nH]1)C(=O)N[C@@H](CC(N)=O)C(=O)N[C@@H](Cc1ccccc1)C(=O)N[C@@H](CCCCN)C(=O)N[C@@H](CCCNC(=N)N)C(=O)N[C@@H](CCCCN)C(=O)O)N(C)C(=O)[C@H](Cc1ccccc1)NC(=O)[C@@H](NC(=O)[C@H](C)NC(=O)[C@H](CCSC)NC(=O)[C@H](CCC(N)=O)NC(=O)[C@@H](NC(=O)[C@H](C)NC(=O)[C@@H](N)[C@@H](C)O)C(C)C)C(C)C (H-TAVQMAVF[NMeI]HNFKRK-OH)	123%	107%
CC[C@H](C)[C@H](NC(=O)[C@H](Cc1ccccc1)NC(=O)[C@@H](NC(=O)[C@H](C)NC(=O)[C@H](CCSC)NC(=O)[C@H](CCC(N)=O)NC(=O)[C@@H](NC(=O)[C@H](C)NC(=O)[C@@H](N)[C@@H](C)O)C(C)C)C(C)C)C(=O)N[C@@H](Cc1cnc[nH]1)C(=O)N[C@@H](CC(N)=O)C(=O)N[C@@H](Cc1ccccc1)C(=O)N[C@@H](CCCCN)C(=O)N[C@@H](CCCNC(=N)N)C(=O)N[C@@H](C)C(=O)O (H-TAVQMAVFIHNFKRA-OH)	109%	209%
CC[C@H](C)[C@H](NC(=O)[C@H](Cc1ccccc1)NC(=O)[C@@H](NC(=O)[C@H](C)NC(=O)[C@H](CCSC)NC(=O)[C@H](CCC(N)=O)NC(=O)[C@@H](NC(=O)[C@H](C)N)C(C)C)C(C)C)C(=O)N[C@@H](Cc1cnc[nH]1)C(=O)N[C@@H](CC(N)=O)C(=O)N[C@@H](Cc1ccccc1)C(=O)N[C@@H](CCCCN)C(=O)N[C@@H](CCCNC(=N)N)C(=O)N[C@@H](CCCCN)C(=O)O (H-AVQMAVFIHNFKRK-OH)	99%	141%

Reference: ChEMBL document CHEMBL3217454, “Structureactivity relationship studies using peptide arrays: the example of HIV-1 Revintegrase interaction” (Medchemcomm, 2013)
